In general, IC50 refers to the concentration at which inhibition is half-maximal.

The results in this text go back to patent publication US20140228286A1, “SPECIFIC PDE4B-INHIBITORS FOR THE TREATMENT OF DIABETES MELLITUS” (BOEHRINGER INGELHEIM INTERNATIONAL GMBH, priority 2013, published 2014).

A value given as a limit tells only on which side of the number the result lay.

The target of the experiment is T1, PDE4B (Homo sapiens, UniProt Q07343).
T1 construct: active site fragment comprising the amino acids 152-484
T1 sequence (Q07343 324-656): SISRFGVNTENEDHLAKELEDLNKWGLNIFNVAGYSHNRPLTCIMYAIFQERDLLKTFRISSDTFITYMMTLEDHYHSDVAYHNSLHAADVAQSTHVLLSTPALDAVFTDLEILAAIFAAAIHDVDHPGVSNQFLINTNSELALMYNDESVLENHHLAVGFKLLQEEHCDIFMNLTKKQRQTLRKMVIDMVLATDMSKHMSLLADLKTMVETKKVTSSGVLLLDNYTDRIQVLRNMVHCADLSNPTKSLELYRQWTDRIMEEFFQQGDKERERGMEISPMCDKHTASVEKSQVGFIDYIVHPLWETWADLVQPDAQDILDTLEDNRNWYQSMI
Kind of experiment: PDE4B Scintillation Proximity (SPA) Assay. The experiment is classed as biochemical. Conditions: PDE4B active site fragment amino acids 152-484; [3H]cAMP; 30° C., one hour; read-out: Experimentally determined IC50-value for PDE4B inhibition. An excerpt: The IC50-values of the compounds of the invention (Examples 1.1 to 1.47) with respect to their PDE4B-inhibiting ability have been determined with a Scintillation Proximity (SPA) Assay (GE Healthcare, No. TRKQ7090). The Scintillation Proximity (SPA) Assay is based on the detection of the different affinities of the cyclic 3′-5′adenosine monophosphate (cAMP, low affinity) and the linear 5′-adenosine monophosphate (AMP, high affinity) to yttrium-silicate-scintillator beads. The cAMP-specific phosphodiesterase (PDE) PDE4B cleaves the 3′-phosphodiester bond of the tritium-labelled-[^3H]cAMP to the [^3H]5′-AMP. This [^3H]5′-AMP associates with the scintillator beads because of their higher affinity and causes scintillations (light flashes) which can be measured in a Wallac Microbeta Scintillation Counter.
10 μl of a [^3H]cAMP-solution (0.05 μCi in H2O, 10-30 Ci/mmol) are added to 89 μl of a PDE4B-enzyme-solution (active site fragment comprising the amino acids 152-484; 0.15-0.18 ng) in assay buffer (50 mM Tris HCl pH 7.5; 8.3 mM MgCl2; 1,7 mM ethylene glyclol tetraacetic acid (EGTA); 0.25 mg/ml bovine serum albumin (BSA)) and this mixture is incubated at 30° C. for one hour
a) without the compound to be tested (in the presence of 1 μl dimethylsulfoxide (DMSO), corresponding to 1% DMSO) and b) in the presence of the compound to be tested in a concentration of 125 μM, 25 μM, 5 μM, 1 μM, 200 nM, 40 nM, 8 nM, 1.6 nM, 0.32 nM, 0.064 nM, 0.0128 nM (dilution series in 5er-steps beginning from 125 μM until 0.0128 nM, in the presence of 1% DMSO).
After this incubation the reaction is stopped by the addition of 50 μl of bead-solution (500 mg beads/35 ml H2O, 18 mM zinc sulfate). In the following 45 minutes the beads have the opportunity to form a sediment. After that the scintillations are measured in the scintillation counter. If the tested compound is able to inhibit the enzymatic activity of the PDE4B-enzyme, less [^3H]AMP depending on the concentration of the tested compound is produced and less scintillations are measurable. […] The IC50-value stands for the compound concentration at which the PDE4B enzyme activity is inhibited to a half maximal value. Therefore the lower the IC50-value is the better is the PDE4B inhibition.
Turning to `[O-][S+]1CCc2nc(N3CCC(c4ccc(Cl)cc4)CC3)nc(NC3(CO)CCC3)c21` (stereo not drawn) [Example 1.47, (1-{2-[4-(4-Chloro-phenyl)-piperidin-1-yl]-5-oxo-6,7-dihydro-5H-5λ^4-thieno[3.2-d]pyrimidin-4-yl-amino}-cyclobutyl)-methanol], the IC50 was determined as 4.3 nM.
As for `CN1C[C@@H](Nc2nc(N3CCC(c4ccc(Cl)cc4)CC3)nc3c2S(=O)(=O)CC3)CCC1=O` [Example 1.45, (S)-5-{2-[4-(4-chlorophenyl)-piperidin-1-yl]-5,5-dioxo-6,7-dihydro-5H-5λ^6-thieno[3,2-d]pyrimidin-4-ylamino}-1-methylpiperidin-2-one], the IC50 came out at 54 nM.
Consider `CC(C)[C@H](CO)Nc1nc(N2CCC(c3nc(-c4ccncc4)no3)CC2)nc2c1[S+]([O-])CC2` (stereo partly drawn) [Example 1.21, (R)-3-methyl-2-{5-oxo-2-[4-(3-pyridin-4-yl-[1,2,4]oxadiazol-5-yl)-piperidin-1-yl]-6,7-dihydro-5H-5λ^4-thieno[3,2-d]pyrimidin-4-ylamino}-butan-1-ol], for which the IC50 is > 10000 nM.
Consider `[O-][S+]1CCc2nc(N3CCC(c4noc5ccccc45)CC3)nc(NC3(CO)CC3)c21` (stereo not drawn) [Example 1.8, {1-[2-(4-benzo[d]isoxazol-3-yl-piperidin-1-yl)-5-oxo-6,7-dihydro-5H-5λ^4-thieno[3,2-d]pyrimidin-4-ylamino]-cyclopropyl}-methanol], for which the IC50 worked out at 1.9 nM.
Turning to `CN1C[C@@H](Nc2nc(N3CCC(Oc4ccc(C5=NCCO5)cc4)CC3)nc3c2[S+]([O-])CC3)CCC1=O` (stereo partly drawn) [Example 1.28, (S)-5-(2-{4-[4-(4,5-dihydrooxazol-2-yl)-phenoxy]-piperidin-1-yl}-5-oxo-6,7-dihydro-5H-5λ^4-thieno[3,2-d]pyrimidin-4-ylamino)-1-methylpiperidin-2-one], the IC50 worked out at 0.19 nM.
With `CC(C)[C@H](CO)Nc1nc(N2CCC(c3ccc(Cl)cc3)CC2)nc2c1[S+]([O-])CC2` (stereo partly drawn) [Example 1.1, (R)-2-{2-[4-(4-chlorophenyl)-piperidin-1-yl]-5-oxo-6,7-dihydro-5H-5λ^4-thieno[3,2-d]pyrimidin-4-ylamino}-3-methylbutan-1-ol], the IC50 stood at 24.2 nM.
For `CC(C)(O)[C@H](Nc1nc(N2CCC(c3ccc(Cl)cc3)CC2)nc2c1[S+]([O-])CC2)c1ccc(F)cc1` (stereo partly drawn) [Example 1.4, (R)-1-{2-[4-(4-chlorophenyl)-piperidin-1-yl]-5-oxo-6,7-dihydro-5H-5λ^4-thieno[3,2-d]pyrimidin-4-ylamino}-1-(4-fluorophenyl)-2-methylpropan-2-ol], the IC50 turned out to be 15.3 nM.
Next, `CCC[C@H](CO)Nc1nc(N2CCC(c3ccc(Cl)cc3)CC2)nc2c1[S+]([O-])CC2` (stereo partly drawn) [Example 1.3, (R)-2-{2-[4-(4-chlorophenyl)-piperidin-1-yl]-5-oxo-6,7-dihydro-5H-5λ^4-thieno[3,2-d]pyrimidin-4-ylamino}-pentan-1-ol]: 8.3 nM; `CN(C(=O)c1ccc(C2CCN(c3nc4c(c(NC5CCOCC5)n3)[S+]([O-])CC4)CC2)cc1)C1CC1` (stereo not drawn) [Example 1.32, N-cyclopropyl-N-methyl-4-{1-[5-oxo-4-(tetrahydropyran-4-ylamino)-6,7-dihydro-5H-5λ^4-thieno[3,2-d]pyrimidin-2-yl]-piperidin-4-yl}-benzamide]: 8.5 nM.
With `CN1C[C@@H](Nc2nc(N3CCC(c4nc5ccccc5o4)CC3)nc3c2[S+]([O-])CC3)CCC1=O` (stereo partly drawn) [Example 1.16, (S)-5-[2-(4-benzoxazol-2-yl-piperidin-1-yl)-5-oxo-6,7-dihydro-5H-5λ^4-thieno[3,2-d]pyrimidin-4-ylamino]-1-methylpiperidin-2-one], the IC50 worked out at 0.1 nM.
In the case of `O=C(O)c1ccc(OC2CCN(c3nc4c(c(NC5CCOCC5)n3)[S+]([O-])CC4)CC2)cc1` (stereo not drawn) [Example 1.24, 4-{1-[5-oxo-4-(tetrahydropyran-4-ylamino)-6,7-dihydro-5H-5λ^4-thieno[3,2-d]pyrimidin-2-yl]-piperidin-4-yloxy}-benzoic acid], the IC50 is 7 nM.
On to `[O-][S+]1CCc2nc(N3CCC(c4nc5c(o4)CCCC5)CC3)nc(NC3CCOCC3)c21` (stereo not drawn) [Example 1.44], for which the IC50 came out at 2.7 nM.
